Data as given in patent publication US8394785B2, “Methods for the treatment and amelioration of urticaria” (Jado Technologies GmbH, priority 2005, dated 2013).

Columns and labels:
human basophils [1] = assay: Histamine release assay, anti-IgE induced, human basophils; assay type: cell-based; conditions: 10 minutes pre-incubation, read-out: maximal inhibitory effect on anti-IgE induced histamine release
Experimental: (§1) Human basophils were isolated from whole blood using ficoll paque (D=1.077). Briefly, heparinized whole blood was diluted 1:3 with PBS (w/o Ca and Mg), layered on the ficoll paque solution, and centrifuged for 30 min at 400×g. Low-density particles such as lymphocytes, monocytes, basophils, and platelets were recovered from the interface between the plasma and ficoll solution. The cell suspension from the interface was centrifuged twice at 200×g for 10 min for removal of thrombocytes from the basophil fraction. The number of basophils in the cell suspension was determined by Toluidin blue staining. The yield of basophils was approximately 2%. These pre-purified basophils were used for the histamine release assay. For the cytokine release assays, basophils were further purified using the “Basophil Isolation Kit” for depletion of non-basophils from the interface cell suspension. […] The quantification of histamine levels was achieved using an automated histamine-analyser system (Firm Borgwelt Technik). The wavelength of the excitation was 355-360 nm and the emission wavelength of fluorescence measurement was 450-460 nm. The intensity of fluorescence was directly proportional to the concentration of histamine in the samples. The amount of released histamine was calculated according to the following formula: net histamine release=(release−blank)×(100/complete). […]

human basophils [2] = assay: Histamine release assay, C5a induced, human basophils; assay type: cell-based
Experimental: as §1

[3] = tested on: allergic volunteers with known type-1-sensitizations; assay: Prick test with patient-specific allergen after topical pre-treatment, wheal size; assay type: in vivo, human; conditions: n = 5; for allergen-prick wheal ± standard error: miltefosine pre-treatment (6% solution, topical, 2 h before); for allergen-prick % inhibition ± standard error (by miltefosine pre-treatment): versus placebo pre-treatment
Excerpt: To provide proof of concept that miltefosine inhibits IgE-dependent human mast cell stimulation and mediator release in vivo we performed a study on selected allergic volunteers with known type-1-sensitizations (n=5). The volunteers were subjected to standard prick testing with their known allergens on both forearms as well as with positive (histamine) and negative (saline) controls (Table 3). Using a double blind, placebo controlled approach, one forearm of each test person was pre-treated with topical miltefosine (6% solution). The contralateral side was subjected to a pre-treatment with a placebo solution (saline), both two hours prior to the prick test. Subsequently, developing skin symptoms were measured with high-quality standardized methods, i.e. macroscopic standard prick test-evaluation (Heinzerling et al 2005), volumetric imaging, thermography, and digital time lapse photography (DTLP). Volunteers known to suffer from permanent severe diseases, especially those affecting the immune system, were excluded from the study. None of the volunteers took any oral […] or leukotriene antagonists within 7 days prior to the beginning of the study. Moreover, none of them took any oral or depot corticosteroids or other immunosuppressive drugs within 21 days before the testing. The course of developing lesions (wheal and erythema size) was assessed macroscopically by measuring vertical and perpendicular diameter of wheal and erythema size. Subsequently, the sum of both diameters was divided by two. In addition, volumetric and thermographic imaging as well as DTLP was performed before and at defined time points after prick testing. To assess the course of developing prick test lesions, wheal size was assessed macroscopically by measuring the diameters at distinct time points after prick testing.

CCCCCCCCCCCCCCCCOP(=O)([O-])OCC[N+](C)(C)C [Compound 3, 1-hexadecylphosphoryl-choline]
inhibition at 25 µM (human basophils [1]): 10%
inhibition at 25 µM (human basophils [2]): 75%
allergen-prick wheal ± standard error ([3]; 15 minutes after prick testing): 4.20 ± 1.36 mm
allergen-prick wheal ± standard error ([3]; 20 minutes after prick testing): 4.40 ± 1.34 mm
allergen-prick wheal ± standard error ([3]; 30 minutes after prick testing): 2.90 ± 1.36 mm
allergen-prick % inhibition ± standard error (by miltefosine pre-treatment) ([3]; 15 minutes after prick testing): 35.0 ± 16.6%
allergen-prick % inhibition ± standard error (by miltefosine pre-treatment) ([3]; 20 minutes after prick testing): 34.8 ± 18.0%
allergen-prick % inhibition ± standard error (by miltefosine pre-treatment) ([3]; 30 minutes after prick testing): 51.8 ± 22.8%
